According to the kinase profiling compilation of Christmann-Franck et al. (2016):

How the values were obtained:
Test in all cases: SelectScreen, TR FRET
ERBB2 (human) = ERBB2 (human) (UniProt P04626)
ITK (human) = ITK (human) (UniProt Q08881)
CDK9 CCNT1 (human) = CDK9 CCNT1 (human) (UniProt O60563+P50750)
KDR (human) = KDR (human) (UniProt P35968)
SYK (human) = SYK (human) (UniProt P43405)
PTK6 (human) = PTK6 (human) (UniProt Q13882)
GRK6 (human) = GRK6 (human) (UniProt P43250)
ABL1 (human) = ABL1 (human) (UniProt P00519)
IGF1R (human) = IGF1R (human) (UniProt P08069)
BRAF (human) = BRAF (human) (UniProt P15056)
ROCK1 (human) = ROCK1 (human) (UniProt Q13464)
EPHA8 (human) = EPHA8 (human) (UniProt P29322)
TAOK2 (human) = TAOK2 (human) (UniProt Q9UL54)
MAP2K6 (human) = MAP2K6 (human) (UniProt P52564)
SRPK1 (human) = SRPK1 (human) (UniProt Q96SB4)
GSK3A (human) = GSK3A (human) (UniProt P49840)

ABL1 (human), sequence (P00519 whole entry, looked up): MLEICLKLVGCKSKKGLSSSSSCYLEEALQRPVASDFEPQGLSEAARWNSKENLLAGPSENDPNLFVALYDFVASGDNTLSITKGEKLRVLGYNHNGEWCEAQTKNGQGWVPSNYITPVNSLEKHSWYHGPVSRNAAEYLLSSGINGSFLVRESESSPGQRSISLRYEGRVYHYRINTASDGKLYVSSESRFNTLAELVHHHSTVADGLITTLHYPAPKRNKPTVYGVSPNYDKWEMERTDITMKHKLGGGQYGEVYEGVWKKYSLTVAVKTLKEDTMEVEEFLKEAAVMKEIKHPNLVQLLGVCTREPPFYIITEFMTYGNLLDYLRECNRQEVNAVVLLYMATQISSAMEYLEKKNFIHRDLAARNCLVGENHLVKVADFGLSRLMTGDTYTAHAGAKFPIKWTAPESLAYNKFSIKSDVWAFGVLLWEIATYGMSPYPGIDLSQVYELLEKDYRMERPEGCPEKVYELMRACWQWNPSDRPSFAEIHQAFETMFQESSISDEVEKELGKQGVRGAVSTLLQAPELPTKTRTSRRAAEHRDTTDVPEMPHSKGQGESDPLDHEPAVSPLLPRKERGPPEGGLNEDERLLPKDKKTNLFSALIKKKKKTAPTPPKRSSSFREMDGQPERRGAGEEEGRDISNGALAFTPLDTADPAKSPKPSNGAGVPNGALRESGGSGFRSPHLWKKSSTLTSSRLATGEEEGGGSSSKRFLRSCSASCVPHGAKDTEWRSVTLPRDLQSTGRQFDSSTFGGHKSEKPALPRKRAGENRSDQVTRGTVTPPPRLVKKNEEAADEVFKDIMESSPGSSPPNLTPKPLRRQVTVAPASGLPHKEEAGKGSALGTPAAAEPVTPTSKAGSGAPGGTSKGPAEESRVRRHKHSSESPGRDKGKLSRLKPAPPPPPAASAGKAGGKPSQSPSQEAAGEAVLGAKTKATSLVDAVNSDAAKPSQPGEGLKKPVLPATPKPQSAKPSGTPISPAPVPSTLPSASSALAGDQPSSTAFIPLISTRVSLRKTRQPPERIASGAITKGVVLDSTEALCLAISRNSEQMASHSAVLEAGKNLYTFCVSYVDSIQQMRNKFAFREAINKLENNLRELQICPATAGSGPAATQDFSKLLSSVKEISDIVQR
ROCK1 (human), sequence (Q13464 whole entry, looked up): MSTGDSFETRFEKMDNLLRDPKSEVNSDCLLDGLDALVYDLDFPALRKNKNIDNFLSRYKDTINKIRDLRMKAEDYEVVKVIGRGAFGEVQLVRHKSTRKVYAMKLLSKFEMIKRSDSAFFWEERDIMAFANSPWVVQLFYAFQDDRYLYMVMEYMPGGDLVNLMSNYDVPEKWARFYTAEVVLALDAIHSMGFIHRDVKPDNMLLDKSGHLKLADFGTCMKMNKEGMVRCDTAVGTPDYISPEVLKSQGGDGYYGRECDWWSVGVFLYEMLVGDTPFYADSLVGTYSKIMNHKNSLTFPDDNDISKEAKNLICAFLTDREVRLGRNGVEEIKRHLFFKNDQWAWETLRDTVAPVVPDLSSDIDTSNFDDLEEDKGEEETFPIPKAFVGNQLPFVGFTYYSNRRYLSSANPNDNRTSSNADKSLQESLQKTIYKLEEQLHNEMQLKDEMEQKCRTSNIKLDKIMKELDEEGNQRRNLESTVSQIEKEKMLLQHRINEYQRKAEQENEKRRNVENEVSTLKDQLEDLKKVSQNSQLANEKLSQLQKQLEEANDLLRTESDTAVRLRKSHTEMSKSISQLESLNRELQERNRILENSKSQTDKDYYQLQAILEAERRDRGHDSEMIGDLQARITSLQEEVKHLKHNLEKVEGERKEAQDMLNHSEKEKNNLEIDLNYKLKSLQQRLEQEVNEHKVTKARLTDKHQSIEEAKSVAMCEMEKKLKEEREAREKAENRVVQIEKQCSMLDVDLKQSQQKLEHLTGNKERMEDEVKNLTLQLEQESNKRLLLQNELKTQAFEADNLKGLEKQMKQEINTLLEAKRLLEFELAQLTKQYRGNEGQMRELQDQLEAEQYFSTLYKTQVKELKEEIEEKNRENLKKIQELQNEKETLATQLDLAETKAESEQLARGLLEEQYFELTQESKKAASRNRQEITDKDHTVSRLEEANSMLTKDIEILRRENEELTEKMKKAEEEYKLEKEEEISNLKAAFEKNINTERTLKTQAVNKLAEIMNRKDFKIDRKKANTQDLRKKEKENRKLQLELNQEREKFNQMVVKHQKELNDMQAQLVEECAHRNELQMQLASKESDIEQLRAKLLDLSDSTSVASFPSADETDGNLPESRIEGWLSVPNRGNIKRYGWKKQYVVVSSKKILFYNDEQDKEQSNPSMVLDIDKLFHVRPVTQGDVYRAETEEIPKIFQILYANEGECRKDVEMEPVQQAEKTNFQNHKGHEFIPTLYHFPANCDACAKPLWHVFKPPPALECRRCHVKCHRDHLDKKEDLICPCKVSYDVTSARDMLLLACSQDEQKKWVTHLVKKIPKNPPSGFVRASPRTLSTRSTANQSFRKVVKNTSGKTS
ITK (human), sequence (Q08881 whole entry, looked up): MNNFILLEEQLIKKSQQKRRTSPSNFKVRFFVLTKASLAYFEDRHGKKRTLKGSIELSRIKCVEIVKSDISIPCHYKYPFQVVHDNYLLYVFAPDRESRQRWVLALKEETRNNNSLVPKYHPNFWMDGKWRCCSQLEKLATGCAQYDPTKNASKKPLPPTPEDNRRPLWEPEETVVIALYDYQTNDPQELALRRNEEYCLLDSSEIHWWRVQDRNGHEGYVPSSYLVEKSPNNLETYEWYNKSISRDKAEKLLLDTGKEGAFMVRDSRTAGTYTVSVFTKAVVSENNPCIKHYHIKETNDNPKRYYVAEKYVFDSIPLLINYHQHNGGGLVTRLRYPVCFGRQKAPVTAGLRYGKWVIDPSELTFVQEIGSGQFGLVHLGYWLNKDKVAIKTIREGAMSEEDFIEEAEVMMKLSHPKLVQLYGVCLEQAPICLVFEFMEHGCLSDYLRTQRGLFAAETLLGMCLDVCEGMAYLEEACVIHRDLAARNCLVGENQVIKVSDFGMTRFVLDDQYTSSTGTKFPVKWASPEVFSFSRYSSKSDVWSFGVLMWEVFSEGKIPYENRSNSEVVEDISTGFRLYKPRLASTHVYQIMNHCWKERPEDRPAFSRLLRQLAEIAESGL
KDR (human), sequence (P35968 whole entry, looked up): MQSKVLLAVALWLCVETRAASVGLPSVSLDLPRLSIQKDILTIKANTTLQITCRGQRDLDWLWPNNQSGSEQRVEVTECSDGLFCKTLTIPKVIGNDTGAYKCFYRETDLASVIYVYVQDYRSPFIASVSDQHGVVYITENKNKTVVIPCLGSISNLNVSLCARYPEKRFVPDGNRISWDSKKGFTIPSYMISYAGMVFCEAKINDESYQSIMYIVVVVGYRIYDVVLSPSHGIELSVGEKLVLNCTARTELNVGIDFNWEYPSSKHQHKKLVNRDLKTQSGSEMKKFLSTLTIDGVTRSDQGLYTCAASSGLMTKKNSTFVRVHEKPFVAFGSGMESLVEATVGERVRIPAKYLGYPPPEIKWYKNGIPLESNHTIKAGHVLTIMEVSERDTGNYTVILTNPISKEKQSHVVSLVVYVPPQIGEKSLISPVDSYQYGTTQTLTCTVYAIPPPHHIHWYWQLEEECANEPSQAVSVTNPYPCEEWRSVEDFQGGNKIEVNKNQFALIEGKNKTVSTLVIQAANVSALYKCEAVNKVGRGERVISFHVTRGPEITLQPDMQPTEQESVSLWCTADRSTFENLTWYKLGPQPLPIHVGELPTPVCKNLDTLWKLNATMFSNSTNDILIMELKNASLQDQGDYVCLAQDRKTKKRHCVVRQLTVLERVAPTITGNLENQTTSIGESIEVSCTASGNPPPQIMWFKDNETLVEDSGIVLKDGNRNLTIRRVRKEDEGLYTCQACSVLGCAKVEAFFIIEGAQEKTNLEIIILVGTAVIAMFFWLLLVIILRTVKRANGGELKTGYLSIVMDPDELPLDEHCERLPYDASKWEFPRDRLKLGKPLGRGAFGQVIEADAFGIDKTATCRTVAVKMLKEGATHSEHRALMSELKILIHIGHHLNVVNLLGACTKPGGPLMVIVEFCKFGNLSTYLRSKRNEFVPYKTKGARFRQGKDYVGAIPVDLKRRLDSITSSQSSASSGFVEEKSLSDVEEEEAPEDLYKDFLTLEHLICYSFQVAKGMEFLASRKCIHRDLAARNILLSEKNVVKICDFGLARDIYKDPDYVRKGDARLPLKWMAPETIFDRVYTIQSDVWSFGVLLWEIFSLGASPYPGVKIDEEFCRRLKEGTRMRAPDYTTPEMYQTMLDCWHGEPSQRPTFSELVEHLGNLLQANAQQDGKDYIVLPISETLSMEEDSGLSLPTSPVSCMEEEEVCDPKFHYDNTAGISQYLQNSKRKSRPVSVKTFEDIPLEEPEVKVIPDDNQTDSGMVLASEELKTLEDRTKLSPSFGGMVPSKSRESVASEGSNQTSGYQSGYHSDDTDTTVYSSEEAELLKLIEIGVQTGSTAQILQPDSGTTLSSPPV
MAP2K6 (human), sequence (P52564 whole entry, looked up): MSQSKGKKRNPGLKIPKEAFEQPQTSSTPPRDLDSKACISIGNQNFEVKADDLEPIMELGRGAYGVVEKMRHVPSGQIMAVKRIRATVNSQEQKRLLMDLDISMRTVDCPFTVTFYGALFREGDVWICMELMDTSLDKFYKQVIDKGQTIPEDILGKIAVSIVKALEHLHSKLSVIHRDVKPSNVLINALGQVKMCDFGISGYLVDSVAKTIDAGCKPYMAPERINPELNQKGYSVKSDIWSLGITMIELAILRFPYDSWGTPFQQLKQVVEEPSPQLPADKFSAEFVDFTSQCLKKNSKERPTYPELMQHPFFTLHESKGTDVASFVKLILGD

SMILES: Cn1cc(-c2cnc3ccc4ccc(CC(=O)NCc5ccccn5)cc4c(=O)c3c2)cn1
- inhibition (ERBB2 (human); compound 0.1 µM): -4.3%
- inhibition (ERBB2 (human); compound 1.0 µM): 2.2%
- inhibition (ERBB2 (human); compound 10.0 µM): -10.5%
- inhibition (ITK (human); compound 0.1 µM): 1.8%
- inhibition (ITK (human); compound 1.0 µM): 3.8%
- inhibition (ITK (human); compound 10.0 µM): 35.8%
- inhibition (CDK9 CCNT1 (human); compound 0.1 µM): 9.4%
- inhibition (CDK9 CCNT1 (human); compound 1.0 µM): 4.4%
- inhibition (CDK9 CCNT1 (human); compound 10.0 µM): 10.8%
- inhibition (KDR (human); compound 0.1 µM): 20%
- inhibition (KDR (human); compound 1.0 µM): 54.7%
- inhibition (KDR (human); compound 10.0 µM): 93.9%
- inhibition (SYK (human); compound 0.1 µM): 19.9%
- inhibition (SYK (human); compound 1.0 µM): 13.2%
- inhibition (SYK (human); compound 10.0 µM): 61.6%
- inhibition (PTK6 (human); compound 0.1 µM): 9.2%
- inhibition (PTK6 (human); compound 1.0 µM): 12.5%
- inhibition (PTK6 (human); compound 10.0 µM): 39.1%
- inhibition (GRK6 (human); compound 0.1 µM): 5.6%
- inhibition (GRK6 (human); compound 1.0 µM): 7%
- inhibition (GRK6 (human); compound 10.0 µM): 13.4%
- inhibition (ABL1 (human); compound 0.1 µM): 19.9%
- inhibition (ABL1 (human); compound 1.0 µM): 14.1%
- inhibition (ABL1 (human); compound 10.0 µM): 81.7%
- inhibition (IGF1R (human); compound 0.1 µM): 16.4%
- inhibition (IGF1R (human); compound 1.0 µM): 15.3%
- inhibition (IGF1R (human); compound 10.0 µM): 16.7%
- inhibition (BRAF (human); compound 0.1 µM): 12.3%
- inhibition (BRAF (human); compound 1.0 µM): 13.5%
- inhibition (BRAF (human); compound 10.0 µM): -0.3%
- inhibition (ROCK1 (human); compound 0.1 µM): 0%
- inhibition (ROCK1 (human); compound 1.0 µM): 2.5%
- inhibition (ROCK1 (human); compound 10.0 µM): 10.9%
- inhibition (EPHA8 (human); compound 0.1 µM): 5.4%
- inhibition (EPHA8 (human); compound 1.0 µM): 6.4%
- inhibition (EPHA8 (human); compound 10.0 µM): 24.3%
- inhibition (TAOK2 (human); compound 0.1 µM): 10.9%
- inhibition (TAOK2 (human); compound 1.0 µM): 7%
- inhibition (TAOK2 (human); compound 10.0 µM): -17.5%
- inhibition (MAP2K6 (human); compound 0.1 µM): 9.7%
- inhibition (MAP2K6 (human); compound 1.0 µM): 9.1%
- inhibition (MAP2K6 (human); compound 10.0 µM): 7.4%
- inhibition (SRPK1 (human); compound 0.1 µM): 11.1%
- inhibition (SRPK1 (human); compound 1.0 µM): 11.5%
- inhibition (SRPK1 (human); compound 10.0 µM): 12.5%
- inhibition (GSK3A (human); compound 0.1 µM): 8.6%
- inhibition (GSK3A (human); compound 1.0 µM): 12.5%
- inhibition (GSK3A (human); compound 10.0 µM): 65.6%
